Results taken from patent US10758534B2 (Vertex Pharmaceuticals Incorporated, priority 2014, dated 2020).

The molecules below were run against T1, F508del (Homo sapiens, UniProt P13569, DEL508-508) (assay: Protocol 1: membrane potential optical assay (FLIPR III, voltage sensing dye), identification of potentiator compounds). Details: Table 3, compounds of Table 1.
T1 construct: expressed in transfected cells
Format: cell-based
In short: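 NIH 3T3 fibroblasts stably expressing F508del were cultured at 27° C for 24 hrs for temperature correction, then treated with compounds or DMSO and loaded with a voltage-sensing redistribution dye. Forskolin added with a Cl⁻ gradient activated the channel; membrane-potential fluorescence on FLIPR III reported increased gating.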

T1 sequence (P13569 with tags, fused parts or gaps DEL508-508): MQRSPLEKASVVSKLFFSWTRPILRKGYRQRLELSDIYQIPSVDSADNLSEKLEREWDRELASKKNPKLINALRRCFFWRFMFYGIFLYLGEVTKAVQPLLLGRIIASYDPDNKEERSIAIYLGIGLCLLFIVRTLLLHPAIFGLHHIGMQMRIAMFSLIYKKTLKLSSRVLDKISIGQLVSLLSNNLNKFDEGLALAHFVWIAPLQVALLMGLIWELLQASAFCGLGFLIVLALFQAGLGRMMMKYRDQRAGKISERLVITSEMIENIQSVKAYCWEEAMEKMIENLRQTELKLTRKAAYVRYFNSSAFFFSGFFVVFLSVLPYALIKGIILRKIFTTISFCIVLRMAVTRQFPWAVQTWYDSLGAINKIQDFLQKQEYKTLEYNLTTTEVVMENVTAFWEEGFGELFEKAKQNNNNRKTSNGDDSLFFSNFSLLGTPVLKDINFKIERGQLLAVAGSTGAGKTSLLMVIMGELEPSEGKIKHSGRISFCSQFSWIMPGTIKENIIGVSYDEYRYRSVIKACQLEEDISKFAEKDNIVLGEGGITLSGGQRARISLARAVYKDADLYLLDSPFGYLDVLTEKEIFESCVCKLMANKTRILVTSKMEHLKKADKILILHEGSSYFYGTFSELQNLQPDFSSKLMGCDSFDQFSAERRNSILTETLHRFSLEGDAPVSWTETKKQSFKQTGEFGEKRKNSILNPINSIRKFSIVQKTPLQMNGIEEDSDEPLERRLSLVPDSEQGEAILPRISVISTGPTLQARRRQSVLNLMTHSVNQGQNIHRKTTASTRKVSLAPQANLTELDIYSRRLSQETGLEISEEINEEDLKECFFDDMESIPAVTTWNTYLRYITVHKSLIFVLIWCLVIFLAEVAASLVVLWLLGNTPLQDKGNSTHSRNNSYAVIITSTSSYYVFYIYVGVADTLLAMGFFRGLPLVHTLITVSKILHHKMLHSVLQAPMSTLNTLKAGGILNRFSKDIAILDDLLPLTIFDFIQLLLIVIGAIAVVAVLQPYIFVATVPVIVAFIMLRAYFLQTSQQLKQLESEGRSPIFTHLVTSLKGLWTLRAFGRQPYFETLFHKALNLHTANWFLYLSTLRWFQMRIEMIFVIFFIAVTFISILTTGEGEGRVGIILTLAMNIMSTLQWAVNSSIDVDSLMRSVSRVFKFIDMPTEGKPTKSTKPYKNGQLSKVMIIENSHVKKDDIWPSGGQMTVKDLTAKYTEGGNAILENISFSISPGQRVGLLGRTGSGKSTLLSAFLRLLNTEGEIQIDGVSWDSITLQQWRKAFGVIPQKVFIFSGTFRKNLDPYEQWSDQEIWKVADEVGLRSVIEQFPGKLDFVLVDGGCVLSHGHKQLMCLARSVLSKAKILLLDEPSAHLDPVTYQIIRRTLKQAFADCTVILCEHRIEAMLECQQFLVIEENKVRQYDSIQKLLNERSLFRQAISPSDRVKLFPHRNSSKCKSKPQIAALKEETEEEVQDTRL

Row | SMILES | EC30
1 | CC(C)COc1cc(F)cc(-c2ccc(C(=O)NS(=O)(=O)c3cccc(N)n3)c(N3CC(C)(C)OCC3(C)C)n2)c1 [Compound 1675, N-[(6-amino-2-pyridyl)sulfonyl]-6-(3-fluoro-5-isobutoxy-phenyl)-2-(2,2,5,5-tetramethylmorpholin-4-yl)pyridine-3-carboxamide] | ++ (“++” means between 3 uM and 10 uM)
2 | CC(C)COc1cc(F)cc(-c2ccc(C(=O)NS(=O)(=O)c3cccc(N)n3)c(OCCC3CCCCO3)n2)c1 (stereo not shown) [Compound 1680, N-[(6-amino-2-pyridyl)sulfonyl]-6-(3-fluoro-5-isobutoxy-phenyl)-2-(2-tetrahydropyran-2-ylethoxy)pyridine-3-carboxamide] | +++ (“+++” means <3 uM)
3 | CCOc1cccc2c1CN(Cc1cc(F)cc(OCC(C)C)c1)C2(C)C(=O)NS(=O)(=O)c1cccc(N)n1 (stereo not shown) [Compound 1681, N-[(6-amino-2-pyridyl)sulfonyl]-4-ethoxy-2-[(3-fluoro-5-isobutoxy-phenyl)methyl]-1-methyl-isoindoline-1-carboxamide] | +++ (“+++” means <3 uM)
4 | CC(C)COc1cc(F)cc(-c2ccc(C(=O)NS(=O)(=O)c3cccc(N)n3)c(OCCC3CC3)n2)c1 [Compound 1685, N-[(6-amino-2-pyridyl)sulfonyl]-2-(2-cyclopropylethoxy)-6-(3-fluoro-5-isobutoxy-phenyl)pyridine-3-carboxamide] | +++ (“+++” means <3 uM)
5 | CC(C)COc1cc(F)cc(-c2ccc(C(=O)NS(=O)(=O)c3cccc(N)n3)c(OCCCCc3ccccc3)n2)c1 [Compound 1686, N-[(6-amino-2-pyridyl)sulfonyl]-6-(3-fluoro-5-isobutoxy-phenyl)-2-(4-phenylbutoxy)pyridine-3-carboxamide] | +++ (“+++” means <3 uM)
6 | CC(C)COc1cc(F)cc(-c2ccc(C(=O)NS(=O)(=O)c3cccc(N)n3)c(OCCCCc3ccncc3)n2)c1 [Compound 1687, N-[(6-amino-2-pyridyl)sulfonyl]-6-(3-fluoro-5-isobutoxy-phenyl)-2-[4-(4-pyridyl)butoxy]pyridine-3-carboxamide] | +++ (“+++” means <3 uM)
7 | CC(C)COc1cc(F)cc(-c2ccc(C(=O)NS(=O)(=O)c3cccc(N)n3)c(OCCCCc3ccccn3)n2)c1 [Compound 1688, N-[(6-amino-2-pyridyl)sulfonyl]-6-(3-fluoro-5-isobutoxy-phenyl)-2-[4-(2-pyridyl)butoxy]pyridine-3-carboxamide] | +++ (“+++” means <3 uM)
8 | CC(C)COc1cc(F)cc(-c2ccc(C(=O)NS(=O)(=O)c3cccc(N)n3)c(OCCC(C)c3ccccc3)n2)c1 (stereo not shown) [Compound 1689, N-[(6-amino-2-pyridyl)sulfonyl]-6-(3-fluoro-5-isobutoxy-phenyl)-2-(3-phenylbutoxy)pyridine-3-carboxamide] | +++ (“+++” means <3 uM)
9 | CC(C)COc1cc(F)cc(-c2ccc(C(=O)NS(=O)(=O)c3cccc(N)n3)c(OCCCCc3cccnc3)n2)c1 [Compound 1690, N-[(6-amino-2-pyridyl)sulfonyl]-6-(3-fluoro-5-isobutoxy-phenyl)-2-[4-(3-pyridyl)butoxy]pyridine-3-carboxamide] | +++ (“+++” means <3 uM)
10 | CC(C)COc1cc(F)cc(-c2ccc(C(=O)NS(=O)(=O)c3cccc(N)n3)c(OCCCc3cccnc3)n2)c1 [Compound 1691, N-[(6-amino-2-pyridyl)sulfonyl]-6-(3-fluoro-5-isobutoxy-phenyl)-2-[3-(3-pyridyl)propoxy]pyridine-3-carboxamide] | ++ (“++” means between 3 uM and 10 uM)
11 | CC(C)COc1cc(F)cc(-c2ccc(C(=O)NS(=O)(=O)c3cccc(N)n3)c(OCCCn3cccn3)n2)c1 [Compound 1692, N-[(6-amino-2-pyridyl)sulfonyl]-6-(3-fluoro-5-isobutoxy-phenyl)-2-(3-pyrazol-1-ylpropoxy)pyridine-3-carboxamide] | ++ (“++” means between 3 uM and 10 uM)
12 | CC(C)COc1cc(F)cc(-c2ccc(C(=O)NS(=O)(=O)c3cccc(N)n3)c(OCCCc3ccccn3)n2)c1 [Compound 1693, N-[(6-amino-2-pyridyl)sulfonyl]-6-(3-fluoro-5-isobutoxy-phenyl)-2-[3-(2-pyridyl)propoxy]pyridine-3-carboxamide] | +++ (“+++” means <3 uM)
13 | CC(C)COc1cc(F)cc(-c2ccc(C(=O)NS(=O)(=O)c3cccc(N)n3)c(OCCCc3ccccc3)n2)c1 [Compound 1694, N-[(6-amino-2-pyridyl)sulfonyl]-6-(3-fluoro-5-isobutoxy-phenyl)-2-(3-phenylpropoxy)pyridine-3-carboxamide] | +++ (“+++” means <3 uM)

Now from value to molecule:

Row | EC30 | SMILES
14 | +++ (“+++” means <3 uM) | CC(C)Oc1cc(-c2ccc(C(=O)NS(=O)(=O)c3cccc(N)n3)c(N3C[C@@H](C)CC3(C)C)n2)cc(C(F)(F)F)c1 [Compound 1674, N-[(6-amino-2-pyridyl)sulfonyl]-6-[3-isopropoxy-5-(trifluoromethyl)phenyl]-2-[(4S)-2,2,4-trimethylpyrrolidin-1-yl]pyridine-3-carboxamide]
15 | +++ (“+++” means <3 uM) | CCOc1cccc2c1CN(Cc1c(C)cccc1C)C2(C)C(=O)NS(=O)(=O)c1cccc(F)n1 (stereo not shown) [Compound 1676, 2-[(2,6-dimethylphenyl)methyl]-4-ethoxy-N-[(6-fluoro-2-pyridyl)sulfonyl]-1-methyl-isoindoline-1-carboxamide]
16 | +++ (“+++” means <3 uM) | C[C@@H]1CN(c2nc(CCC3CC3)ccc2C(=O)NS(=O)(=O)c2cccc(N)n2)C(C)(C)C1 [Compound 1677, N-[(6-amino-2-pyridyl)sulfonyl]-6-(2-cyclopropylethyl)-2-[(4S)-2,2,4-trimethylpyrrolidin-1-yl]pyridine-3-carboxamide]
17 | + (“+” means greater than 10 uM) | Cc1cccc(C)c1Cn1nc(-c2cnc(N(C)C)nc2)cc1C(=O)NS(=O)(=O)c1ccccc1 [Compound 1678, N-(benzenesulfonyl)-5-[2-(dimethylamino)pyrimidin-5-yl]-2-[(2,6-dimethylphenyl)methyl]pyrazole-3-carboxamide]
18 | +++ (“+++” means <3 uM) | C[C@@H]1CC[C@H](C)N1c1nc(-c2ccc(OC(F)F)nc2)ccc1C(=O)NS(=O)(=O)c1cccc(N)n1 [Compound 1679, N-[(6-amino-2-pyridyl)sulfonyl]-6-[6-(difluoromethoxy)-3-pyridyl]-2-[(2S,5R)-2,5-dimethylpyrrolidin-1-yl]pyridine-3-carboxamide]
19 | +++ (“+++” means <3 uM) | CC(C)CC/C=C/c1cc(C(=O)NS(=O)(=O)c2cccc(N)n2)c(N2C[C@@H](C)CC2(C)C)nc1C(C)(C)C [Compound 1682, N-[(6-amino-2-pyridyl)sulfonyl]-6-tert-butyl-5-[(E)-5-methylhex-1-enyl]-2-[(4S)-2,2,4-trimethylpyrrolidin-1-yl]pyridine-3-carboxamide]
20 | +++ (“+++” means <3 uM) | CC(C)=Cc1ccc(C(=O)NS(=O)(=O)c2cccc(N)n2)c(N2C[C@@H](C)CC2(C)C)n1 [Compound 1683, N-[(6-amino-2-pyridyl)sulfonyl]-6-(2-methylprop-1-enyl)-2-[(4S)-2,2,4-trimethylpyrrolidin-1-yl]pyridine-3-carboxamide]
21 | +++ (“+++” means <3 uM) | C[C@@H]1CN(c2nc(C3=CN(C(=O)OC(C)(C)C)CC3)ccc2C(=O)NS(=O)(=O)c2cccc(N)n2)C(C)(C)C1 [Compound 1684, tert-butyl 4-[5-[(6-amino-2-pyridyl)sulfonylcarbamoyl]-6-[(4S)-2,2,4-trimethylpyrrolidin-1-yl]-2-pyridyl]-2,3-dihydropyrrole-1-carboxylate]
22 | +++ (“+++” means <3 uM) | Cc1cc(-c2ccc(C(=O)NS(=O)(=O)c3cccnc3N)c(N3C[C@@H](C)CC3(C)C)n2)cnc1OCCOC(C)C [Compound 1695, N-[(2-amino-3-pyridyl)sulfonyl]-6-[6-(2-isopropoxyethoxy)-5-methyl-3-pyridyl]-2-[(4S)-2,2,4-trimethylpyrrolidin-1-yl]pyridine-3-carboxamide]
23 | +++ (“+++” means <3 uM) | CCOCCOCCOc1cc(C)cc(-c2ccc(C(=O)NS(=O)(=O)c3cccc(N)n3)c(N3C[C@@H](C)CC3(C)C)n2)n1 [Compound 1696, N-[(6-amino-2-pyridyl)sulfonyl]-6-[6-[2-(2-ethoxyethoxy)ethoxy]-4-methyl-2-pyridyl]-2-[(4S)-2,2,4-trimethylpyrrolidin-1-yl]pyridine-3-carboxamide]
24 | +++ (“+++” means <3 uM) | C[C@@H]1CN(c2nc(C3=CCCCO3)ccc2C(=O)NS(=O)(=O)c2cccnc2N)C(C)(C)C1 [Compound 1699, N-[(2-amino-3-pyridyl)sulfonyl]-6-(3,4-dihydro-2H-pyran-6-yl)-2-[(4S)-2,2,4-trimethylpyrrolidin-1-yl]pyridine-3-carboxamide]
25 | +++ (“+++” means <3 uM) | CCOCCOc1cc(C)cc(-c2ccc(C(=O)NS(=O)(=O)c3cccc(N)n3)c(N3C[C@@H](C)CC3(C)C)n2)n1 [Compound 1700, N-[(6-amino-2-pyridyl)sulfonyl]-6-[6-(2-ethoxyethoxy)-4-methyl-2-pyridyl]-2-[(4S)-2,2,4-trimethylpyrrolidin-1-yl]pyridine-3-carboxamide]
26 | +++ (“+++” means <3 uM) | Cc1ccccc1-c1cnc(N2CC(C)CC2(C)C)c(C(=O)NS(=O)(=O)c2cccc(N)n2)c1 (stereo not shown) [Compound 1701, N-[(6-amino-2-pyridyl)sulfonyl]-5-(o-tolyl)-2-(2,2,4-trimethylpyrrolidin-1-yl)pyridine-3-carboxamide]
27 | +++ (“+++” means <3 uM) | Cc1cc(-c2ccc(C(=O)NS(=O)(=O)c3cccnc3N)c(N3C[C@@H](C)CC3(C)C)n2)cnc1OC(C)C [Compound 1702, N-[(2-amino-3-pyridyl)sulfonyl]-6-(6-isopropoxy-5-methyl-3-pyridyl)-2-[(4S)-2,2,4-trimethylpyrrolidin-1-yl]pyridine-3-carboxamide]
28 | +++ (“+++” means <3 uM) | Cc1cc(OCCOC(C)C)nc(-c2ccc(C(=O)NS(=O)(=O)c3cccc(N)n3)c(N3C[C@@H](C)CC3(C)C)n2)c1 [Compound 1703, N-[(6-amino-2-pyridyl)sulfonyl]-6-[6-(2-isopropoxyethoxy)-4-methyl-2-pyridyl]-2-[(4S)-2,2,4-trimethylpyrrolidin-1-yl]pyridine-3-carboxamide]
